Experimental data: paper PMC12592319, “Predicting Food Effect On Oral Drug Absorption For Solubility-Epithelial Membrane Permeation-Limited Cases With Bile Micelle Solubilization” (Pharmaceutical Research, 2025)
Converted amounts (≈) assume the structure as drawn. Like-named read-outs stand apart in the source and are kept apart here.

Tests used:
[1] = Equilibrium solubility measurement (shake-flask) in blank FaSSIF, FaSSIF, FeSSIF; assay type: physicochemical; conditions: for solubility at 72 h: thermodynamic from solid, pH 6.5, 37°C, mean ± S.D., N = 3; for Ratio (fed/fasted) Sdissolv: FeSSIF/FaSSIF, corresponds to Fafed/Fafasted predicted by Eq. (18)
Protocol: A shake-flask method was used for equilibrium solubility measurement. Each drug (10 mg) was added to the 15 mL test tube. Blank FaSSIF (28.7 mM phosphate buffer, pH 6.5 adjusted by NaOH), FaSSIF (3 mM TC, 0.75 mM EL in blank FaSSIF), or FeSSIF (15 mM TC, 3.75 mM EL in blank FaSSIF) was added. The test tube was placed horizontally in a reciprocal shaker. After shaking for 72 h at 37°C (at 90 rpm, motion width: 2.5 cm), the sample was filtered (hydrophilic PVDF, φ = 4.0 mm, pore size: 0.22 µm, Merck). The first few droplets were discarded to avoid filter adsorption. The concentration of each drug was measured by UV absorbance. […] After measuring the final pH (9615S-10D Standard ToupH electrode (HORIBA Advanced Techno Co., Ltd., Kyoto, Japan)), the residual particles were collected by vacuum filtration and analyzed by powder X-ray diffraction (PXRD) (Supplemental Information Figure S1).

[2] = Octanol-water partition/distribution coefficient (logPoct, logDoct); assay type: physicochemical; conditions: calculated from logPoct and pKa using the Henderson-Hasselbalch equation
Text: Table II Physicochemical Properties and Caco-2 Permeability of Model Drugs | column: logDoct,pH 6.5^c

[3] = μFLUX dissolution-permeation flux experiment; conditions: for kdiss: calculated from the initial dissolution rate in μFLUX; for Ratio (fed/fasted) CD,final / Ratio (fed/fasted) JμFLUX: FeSSIF/FaSSIF, μFLUX dose 1/10 of the clinical dose; for fraction unbound: pH 6.5, fu; for CD,final: measured after filtration, 1/10 of clinical dose, mean ± S.D., N = 3; for Pep,u,μFLUX: Peff,μFLUX/fu; for JμFLUX: average of 90 to 120 min (pranlukast 210 to 240 min); for Peff,μFLUX: calculated based on CD,final; for Time after which CD reached a plateau: donor solution
Protocol: The μFLUX apparatus (pION Inc., MA, USA) (Fig. 2) was used for dissolution-permeation flux experiments. The membrane filter (1.54 cm^2) was coated with 25 μL of a 10% soybean lecithin-decane solution [72]. FaSSIF or FeSSIF (15 mL) was added to the donor chamber. The acceptor sink buffer (volume (VA) = 15 mL) was added to the acceptor chamber. The temperature was maintained at 37°C. The stirring rotation speed was set to 150 rpm. Each drug formulation (1/10 of the clinical dose) was added after being gently crushed by mortar and pestle. The drug concentrations in the donor (CD) and acceptor (CA) solutions were monitored using a UV probe for 2 h, except for pranlukast (4 h) (2 mm (donor) and 20 mm (acceptor) apertures). […] The final drug concentration in the donor chamber (CD, final) was measured after filtration as described above.
The flux value (JμFLUX) was calculated from the slope of the drug concentration–time curve in the acceptor solution in the last 30 min.19 JμFLUX=ΔCA/ΔTVA/SA where SA is the membrane surface area (1.54 cm^2). The effective permeability in μFLUX (Peff, μFLUX) value was calculated from JμFLUX and CD, final.20 Peff,μFLUX=JμFLUX/CD,final

Caco-2 = tested on: Caco-2; design: method as in PMID 9795088, PMID 10767597, PMID 15032311; conditions: cited from earlier work
[4] = cited from earlier work
[5] = pKa measurement (SiriusT3, UV-metric/pH-metric titration); assay type: physicochemical; conditions: acidic pKa; ionic strength 0.168 mol/L, 37°C; read-out: pKa (A)
Protocol: The pKa measurements were performed using a SiriusT3 automatic titrator, with a spectrometric (UV-metric) or titration (pH-metric) method. The UV-metric method used a fiber optic dip probe, a deuterium lamp UV light source, and a photodiode array detector to capture the absorption spectra of a sample solution over the course of three titrations, across the pH range 2.0–12.0. […] Titrations were carried out under a controlled temperature of 37 ± 0.2°C.
SiriusT3 software v2.0 was used to apply principal component analysis to the spectral data to resolve the molar absorptivity spectra of each sample species and determine the psKa values of the compounds in the co-solvent. The pKa values under aqueous conditions were calculated from the co-solvent data using the Yasuda-Shedlovsky extrapolation method.
Additional potentiometric titrations were performed for each drug, which confirmed that no additional non-UV active pKas were present within the titration pH range.

[6] = FaRLS diagnosis by Fa equation and Peff equation (Table S3, dose number); conditions: for Dose number, Fasted / Dose number, Fed: clinical dose; for Dose number, Fasted: Sdissolv in FaSSIF; for Dose number, Fed: Sdissolv in FeSSIF
[7] = assumed to be the same as Caco-2 Papp, cited from earlier work
[8] = clinical AUC ratio fed/fasted, humans; cited from earlier work
[9] = design: method as in PMID 31863733; conditions: previous prediction; cited from earlier work
[10] = design: method as in PMID 20307655, PMID 19465123, PMID 17828749, PMID 23994640; conditions: pH 6.5; cited from earlier work
[11] = bile micelles in FaSSIF, FaSSIF, calculated by Eq. (9) (Sdissolv,u/Sdissolv)

Row | Compound | Ratio (fed/fasted) Sdissolv [1] | logDoct,pH 6.5 [2] | Ratio (fed/fasted) CD,final [3] | Ratio (fed/fasted) JμFLUX [3] | fraction unbound [3, 11] | CD,final ([3]; donor FaSSIF pH 6.5) [µg/mL] | JμFLUX ([3]; donor FaSSIF) | Peff,μFLUX ([3]; donor FaSSIF) | CD,final ([3]; donor FeSSIF pH 6.5) [µg/mL] | JμFLUX ([3]; donor FeSSIF) | Peff,μFLUX ([3]; donor FeSSIF) | Time after which CD reached a plateau [3] [min] | Caco-2 Papp (Caco-2) | logPoct [4] | Dose number, Fasted [6] | Dose number, Fed [6] | Ratio (fed/fasted) AUCr [8] | other results
1 | COc1ccccc1Oc1c(NS(=O)(=O)c2ccc(C(C)(C)C)cc2)nc(-c2ncccn2)nc1OCCO [Bosentan] | 2.1 | 2.2 | 1.9 | 0.91 | 0.73 | 49 ± 0 | 6.7 ± 0.8 10–^3 μg/cm^2/s | 14 ± 2 10^–5 cm/s | 95 ± 0 | 6.1 ± 0.2 10–^3 μg/cm^2/s | 6.4 ± 0.2 10^–5 cm/s | 20 | 1 [52] 10^–6 cm/s | 3.8 | 23 | 9 | 1.1 | solubility at 72 h ([1]; FaSSIF, read-out: Solubility, FaSSIF): 41 ± 1 µg/mL (≈ 74.3 µM); solubility at 72 h ([1]; FeSSIF, read-out: Solubility, FeSSIF): 87 ± 1 µg/mL (≈ 158 µM); solubility at 72 h ([1]; blank FaSSIF, read-out: Solubility, Blank FaSSIF): 30 ± 1 µg/mL (≈ 54.4 µM); kdiss ([3]; Fasted): 1.695 h⁻¹; kdiss ([3]; Fed): 2.599 h⁻¹; fraction unbound ([3]; bile micelles in FeSSIF, FeSSIF, calculated by Eq. (9) (Sdissolv,u/Sdissolv)): 0.34; Pep,u,μFLUX ([3]; donor FaSSIF): 18 ± 2 10^–5 cm/s; Pep,u,μFLUX ([3]; donor FeSSIF): 19 ± 1 10^–5 cm/s; pKa [5]: 4.87; Dn ([6]; Fasted): 5.9; Do ([6]; Fasted): 23; Pep ([6]; Fasted): 0.73 10^-6 cm/s; Pep' ([6]; Fasted): 7.3 10^-6 cm/s; Dn ([6]; Fed): 9.1; Do ([6]; Fed): 9.2; Pep ([6]; Fed): 0.34 10^-6 cm/s; Pep' ([6]; Fed): 3.4 10^-6 cm/s; fraction unbound ([6]; human, bile micelles in FaSSIF, pH 6.5): 0.73; Pep,u ([7]; Fasted): 1 10^-6 cm/s; Pep,u ([7]; Fed): 1 10^-6 cm/s
2 | Cc1ccc(-c2cc(C(F)(F)F)nn2-c2ccc(S(N)(=O)=O)cc2)cc1 [Celecoxib] | 2.2 | 3.5 | 1.7 | 1.7 | 0.069 | 37 ± 1 | 6.7 ± 0.4 10–^3 μg/cm^2/s | 18 ± 2 10^–5 cm/s | 62 ± 1 | 11 ± 1 10–^3 μg/cm^2/s | 18 ± 1 10^–5 cm/s | 20 | 18 [56] 10^–6 cm/s | 3.5 | 67 | 25 | 1.6 | fu ([3]; FeSSIF, calculated by Eq. (9) (Sdissolv,u/Sdissolv)): 0.031; Food effect predicted by the GUT framework [9]: 2.3; Solubility, Blank FaSSIF [10]: 3.2 µg/mL (≈ 8.39 µM); Solubility, FaSSIF [10]: 46.2 µg/mL (≈ 121 µM); Solubility, FeSSIF [10]: 103 µg/mL (≈ 270 µM)
